# Assay results: patent US10696677B2 (Research Triangle Institute, priority 2016, dated 2020)
# Where two headings read alike, the source gives them in different places.
# Legend:
# [1] = molecular target: T1, hCB1 (Homo sapiens, UniProt P21554); assay: functional fluorescent CB1 activated Gαq16-coupled intracellular calcium mobilization assay in CHO-K1 cells; format: cell-based; parameters: expressed in transfected cells; host or cells: CHO-K1 (membranes); details: average of 3-6 measurements, read-out: Apparent antagonist dissociation constant (Ke) at hCB1
# [2] = test system: MDCK; assay: MDCK BBB Assay; format: in vitro ADME; details: for % Permeable: MDCK BBB assay; for MDCK BBB Assay (Basolateral/Apical Peak Area Ratio) Mean: MDCK cells
# [3] = molecular target: T1, hCB1; assay: radioligand displacement binding at CB1 (membranes of CHO-K1 cells over-expressing receptor); details: for CB2 Ki/CB1 Ki selectivity ratio: CB1 versus CB2
# Method: (§1) All compounds were characterized by H^1 NMR and evaluated using a calcium mobilization assay. […] Further characterization of select compounds was performed using radioligand displacement of [3H]1 and equilibrium dissociation constant (Ki) values were determined.
# [4] = molecular target: hCB2 (Homo sapiens, UniProt P34972); assay: radioligand displacement binding at CB2 ([3H]CP55940, membranes of CHO-K1 cells over-expressing receptor)
# Sequence of hCB2 (P34972 whole entry): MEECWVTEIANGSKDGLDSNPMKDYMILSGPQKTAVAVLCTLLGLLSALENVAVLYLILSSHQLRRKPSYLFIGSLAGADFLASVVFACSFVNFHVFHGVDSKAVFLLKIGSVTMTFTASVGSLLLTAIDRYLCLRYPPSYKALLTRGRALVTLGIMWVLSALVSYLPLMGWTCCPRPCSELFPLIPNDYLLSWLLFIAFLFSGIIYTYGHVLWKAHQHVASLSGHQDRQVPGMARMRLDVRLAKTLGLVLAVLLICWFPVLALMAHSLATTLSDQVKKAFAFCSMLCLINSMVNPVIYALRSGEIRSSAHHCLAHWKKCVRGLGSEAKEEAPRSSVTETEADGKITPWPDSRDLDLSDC
# Method: as §1
# T1 sequence (P21554 whole entry): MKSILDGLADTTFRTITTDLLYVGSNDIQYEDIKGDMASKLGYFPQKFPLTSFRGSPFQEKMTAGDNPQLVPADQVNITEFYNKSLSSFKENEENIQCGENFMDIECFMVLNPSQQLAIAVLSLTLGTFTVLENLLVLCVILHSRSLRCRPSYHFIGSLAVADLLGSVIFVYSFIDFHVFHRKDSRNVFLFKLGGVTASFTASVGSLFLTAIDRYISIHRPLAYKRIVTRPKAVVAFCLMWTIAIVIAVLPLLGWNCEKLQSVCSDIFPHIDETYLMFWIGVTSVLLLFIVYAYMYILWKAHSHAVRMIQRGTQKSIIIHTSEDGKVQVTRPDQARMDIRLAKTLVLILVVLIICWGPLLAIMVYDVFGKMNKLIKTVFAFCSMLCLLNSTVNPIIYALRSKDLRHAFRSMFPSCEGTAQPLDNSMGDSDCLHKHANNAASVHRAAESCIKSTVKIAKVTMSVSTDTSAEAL
melting point [°C],Kb [1] [nM],% Permeable [2] [%],MDCK BBB Assay (Basolateral/Apical Peak Area Ratio) Mean [2],Ki [3] [nM],CB2 Ki/CB1 Ki selectivity ratio [3],Ki [4] [nM],"Ki ([3]; read-out: Binding affinity (Ki) at hCB1, radioligand displacement, CHO-K1 membranes, average of 3-6 measurements) [nM]",Structure (SMILES)
79 to 81,320,,,,,,,"Cc1cc(-n2c(-c3ccccc3Cl)nc3c(N4CCN(Cc5ccccc5Cl)CC4)ncnc32)no1 [Compound 49, 8-(2-chlorophenyl)-6-{4-[(2-chlorophenyl)methyl]piperazin-1-yl}-9-(5-methyl-1,2-oxazol-3-yl)-9H-purine]"
150 to 152,380,,,,,,,"Cn1ccc(-n2c(-c3ccccc3Cl)nc3c(N4CCN(Cc5ccccc5Cl)CC4)ncnc32)n1 [Compound 51, 8-(2-Chlorophenyl)-6-{4-[(2-chlorophenyl)methyl]piperazin-1-yl}-9-(1-methyl-1H-pyrazol-3-yl)-9H-purine]"
,869,,,272,5.8,1570,,"CCCCC(=O)NC1(c2ccccc2)CCN(c2ncnc3c2nc(-c2ccncc2)n3-c2ccc(Cl)cc2)CC1 [Compound 55, N-{1-[9-(4-chlorophenyl)-8-pyridin-4-yl-9H-purin-6-yl]-4-phenylpiperidin-4-yl}pentanamide]"

# The next lines start with the compound.
Structure (SMILES),melting point [°C],Kb [1] [nM],% Permeable [2] [%],MDCK BBB Assay (Basolateral/Apical Peak Area Ratio) Mean [2],Ki [3] [nM],CB2 Ki/CB1 Ki selectivity ratio [3],Ki [4] [nM],"Ki ([3]; read-out: Binding affinity (Ki) at hCB1, radioligand displacement, CHO-K1 membranes, average of 3-6 measurements) [nM]"
"O=S(=O)(NC1CCN(c2ncnc3c2nc(-c2ccccc2Cl)n3-c2ccc(Cl)cc2)CC1)c1ccccc1F [Compound 1, N-{1-[8-(2-Chlorophenyl)-9-(4-chlorophenyl)-9H-purin-6-yl]piperidin-4-yl}-2-fluorobenzene-1-sulfonamide]",185 to 187,0.1,,,,,,
"N#Cc1ccc(N2CCN(c3ncnc4c3nc(-c3ccccc3Cl)n4-c3ccc(Cl)cc3)CC2)nc1 [Compound 3, 6-{4-[8-(2-Chlorophenyl)-9-(4-chlorophenyl)-9H-purin-6-yl]piperazin-1-yl}pyridine-3-carbonitrile]",,11.3,1,0.005,4.8,101,484,
"O=S(=O)(NC1CCN(c2ncnc3c2nc(-c2ccccc2Cl)n3-c2ccc(Cl)cc2)CC1)c1ccc(F)cc1 [Compound 4, N-{1-[8-(2-Chlorophenyl)-9-(4-chlorophenyl)-9H-purin-6-yl]piperidin-4-yl}-4-fluorobenzene-1-sulfonamide]",196 to 197,1.1,0,0.0006,,,,
"Cn1cc(-n2c(-c3ccccc3Cl)nc3c(N4CCC(NS(=O)(=O)c5ccc(F)c(F)c5)CC4)ncnc32)cn1 [Compound 12, N-{1-[8-(2-Chlorophenyl)-9-(1-methyl-1H-pyrazol-4-yl)-9H-purin-6-yl]piperidin-4-yl}-3,4-difluorobenzene-1-sulfonamide]",162 to 164,140,,,,,,
"CN(Cc1ccccc1)C1CCN(c2ncnc3c2nc(-c2ccccc2Cl)n3-c2ccc(Cl)cc2)CC1 [Compound 39, N-benzyl-1-[8-(2-chlorophenyl)-9-(4-chlorophenyl)-9H-purin-6-yl]-N-methylpiperidin-4-amine]",,106,,,,98,4100,42
O=C(Nc1ccccc1)N1CCN(c2ncnc3c2nc(-c2ccccc2Cl)n3-c2ccc(C(F)(F)F)nc2)CC1 [Compound 45],,8,,,39,30,790,
"FC(F)(F)c1ccc(-n2c(-c3ccccc3Cl)nc3c(N4CCN(Cc5ccccc5Cl)CC4)ncnc32)cn1 [Compound 47, 8-(2-Chlorophenyl)-6-{4-[(2-chlorophenyl)methyl]piperazin-1-yl}-9-[6-(trifluoromethyl)pyridin-3-yl]-9H-purine]",189 to 190,140,,,,,,
"NC(=O)c1ccc(-n2c(-c3ccccc3Cl)nc3c(N4CCN(Cc5ccccc5Cl)CC4)ncnc32)cc1 [Compound 48, 4-[8-(2-chlorophenyl)-6-{4-[(2-chlorophenyl)methyl]piperazin-1-yl}-9H-purin-9-yl]benzamide]",120 to 122,440,,,,,,
